Data taken from patent US6432682B1, “Substances KF-1040 and process for producing of the same” (The Kitasato Institute, priority 2000, dated 2002).
Converted amounts (≈) assume the structure as drawn.

Experiments:
[1] = target: diacylglycerol:acyltransferase; experiment: Inhibitory action to rat-originated diacylglycerol:acyltransferase (rat liver microsomal fraction); type: biochemical; conditions: 23° C., 15 minutes
Method: The activity of diacylglycerol:acyltransferase was determined by the modified method of Mayorek and Bar-Tana [J. Biol. Chem., 260, 6528-6532 (1985)].
Thus, a microsomal fraction prepared from rat liver was used as the enzyme source. To a 175 mM Tris-HCl buffer (pH 8.0) containing 8 mM of MgCl2, 1 mg/ml of bovine, serum albumin and 2.5 mM of diisopropyl fluorophosphate, there were added 0.75 mM of dioleoylglycerol and 30 μM of [1-^14C]-palmitoyl-CoA (0.02 μCi) and the total volume was adjusted to 200 μl, whereupon the enzymatic reaction mixture was incubated at 23° C. for 15 minutes. The total lipids were extracted with chloroform/methanol mixture and each lipid was separated by a TLC (with Kieselgel GF254 and a developer of petroleum ether/diethyl ether/acetic acid of 80/20/1), followed by determination of the radioactivity of the triacylglycerol fraction using RADIOSCANNER (of the firm AMBIS System Inc.) to determine the diacylglycerol:acyltransferase activity.

[2] = system: triacylglycerol formation in Raji cell originated from human Burkitt lymphoma; experiment: Inhibitory action to formation of triacylglycerol in human-originated cells (Raji cell); type: cell-based; conditions: 0.5 h, [1-14C]-oleic acid, 37° C., 30 minutes, read-out: drug concentration corresponding to 50% inhibition of triacylglycerol formation
Method: The assessment of influence of the substances on the triacylglycerol formation was performed in accordance with the method of Tomoda et al [J. Biol. Chem., 266, 4214-4219 (1991)] using human-originated cells (Raji cell originated from human Burkitt lymphoma).
A Raji cell dispersion of 2.7×10^6 cells per milliliter containing 0.36 nM [1-^14C]-oleic acid (0.02 μCi) in the presence or absence of the; substance was filled up to a total volume 200 μl, whereupon the reaction was caused at 37° C. for 30 minutes. The total lipids were extracted with chloroform/methanol (2/1) mixture. The subsequent procedures were carried out in the same manner as in the above experiment (1) “inhibitive action to rat-originated diacylglycerol-acyltransferase”.
The calculation of the drug concentration corresponding to 50% inhibition of triacylglycerol formation gives the values of 10 μg/ml for the KF-1040 substance A and 10 μg/ml for the KF-1040 substance B.

[3] = target: T1, acid sphingomyelinase originated from human placenta (Homo sapiens, UniProt P17405); experiment: Influence on human placenta-originated acid sphingomyelinase; type: biochemical; conditions: human placenta enzyme (Sigma), pH 5.0, 37° C., 30 minutes; read-out: concentration corresponding to 50% inhibition of acid sphingomyelinase (converted)
T1 construct: an acid sphingomyelinase originated from human placenta (a product of the firm Sigma) was used as the enzyme source; purchased Sigma; host or cells: human placenta
T1 sequence (P17405 47-631): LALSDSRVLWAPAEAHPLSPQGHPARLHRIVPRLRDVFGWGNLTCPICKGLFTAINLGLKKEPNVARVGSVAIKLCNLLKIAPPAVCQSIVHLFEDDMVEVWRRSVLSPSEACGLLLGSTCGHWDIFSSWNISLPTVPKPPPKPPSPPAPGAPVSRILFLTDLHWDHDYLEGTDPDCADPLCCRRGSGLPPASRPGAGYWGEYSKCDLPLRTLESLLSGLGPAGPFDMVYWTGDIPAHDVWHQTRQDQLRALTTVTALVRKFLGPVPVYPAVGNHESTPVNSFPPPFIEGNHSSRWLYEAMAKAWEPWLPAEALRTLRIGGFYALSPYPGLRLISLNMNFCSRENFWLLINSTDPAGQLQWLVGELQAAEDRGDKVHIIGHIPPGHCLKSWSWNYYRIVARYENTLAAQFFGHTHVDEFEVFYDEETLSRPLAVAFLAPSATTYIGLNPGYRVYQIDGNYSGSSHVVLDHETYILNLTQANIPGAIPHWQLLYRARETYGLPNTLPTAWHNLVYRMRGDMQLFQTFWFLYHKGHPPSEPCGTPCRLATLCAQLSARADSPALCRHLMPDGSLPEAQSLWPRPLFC
Method: The assessment of influence of the substances on human placenta-originated acidic sphingomyelinase was performed in accordance with the method of Jones et al [Biochem. Journal, 195, 373-382 (1981)] with partial modification.
Thus, an acid sphingomyelinase originated from human placenta (a product of the firm Sigma) was used as the enzyme source and thereto were added 250 mM of sodium acetate buffer solution (pH 5.0), 0.1% of NP-40 (of the firm Sigma), 25 μM [N-methyl-^3H]-sphingomyelin (0.006 μCi) and various concentrations of the substance, and the mixture was filled up to a total volume of 50 μl. After the reaction at 37° C. for 30 minutes, 200 μl of chloroform/methanol mixture (1/2 volume ratio) was added to the reaction mixture to separate the reaction product [^3H]-phosphocholine from the starting material [^3H]-sphingomyelin. The supernatant layer was taken up into a 50 μl vial. The amount of [^3H]-phosphocholine was quantitatively determined by a liquid scintillation counter to estimate the acid sphingomyelinase activity.

Solubility in solvents = type: physicochemical; conditions: in methanol, benzene, chloroform and ethyl acetate
[4] = Acidic or alkaline nature; type: physicochemical

Structure (SMILES) | drug concentration corresponding to 50% inhibition of diacylglycerol:acyltransferase [1] [µg/mL] | IC50 [2] [µg/mL] | IC50 [3] [µM] | Solubility in solvents (Solubility in solvents) | Acidic or alkaline nature [4]
CCC(C)CC(C)CC(C)C(OC1OC(COC(C)=O)C(O)C(O)C1O)C(C)C=C(C)C(O)C(C)C=C(C)C(O)C(C)C=C(C)C(=O)OCC(O)C(O)C(O)CO (stereo not shown) [KF-1040 substance B] | 9.0 | 10 (≈ 12.2 µM) | 29.3 | soluble in methanol, benzene, chloroform | neutral
CCC(C)CC(C)CC(C)C(OC1OC(CO)C(O)C(O)C1O)C(C)C=C(C)C(O)C(C)C=C(C)C(O)C(C)C=C(C)C(=O)OCC(O)C(O)C(O)CO (stereo not shown) [KF-1040 substance A] | 16 | 10 (≈ 12.9 µM) | 61.8 | solule in methanol, benzene, chloroform | neutral
